Measurements: patent US10632106B2, “Methods of cancer treatment with 2-(1′H-Indole-3′-carbonyl)-thiazole-4-carboxylic acid methyl ester” (Ariagen, Inc., priority 2009, dated 2020)

System: Siha (human cervical cancer) xenografts
Assay: Siha xenograft growth inhibition
Type: in vivo
Conditions: ITE 100-200 mg/kg i.p. once daily
Procedure: All the procedures related to animal handling, care, and the treatment in the study were performed following guidelines of KeyGen Biotechn Co., Ltd. (Nanjing, China), a contract research organization we hired, based on the guidance of the Association for Assessment and Accreditation of Laboratory Animal Care (AAALAC). Animals were checked for any effects of tumor growth and drug treatment on normal behavior such as mobility, food and water consumption, body weight gain/loss (bodyweights were measured every two days), eye/hair matting, and any other abnormal effect. Death and observed clinical signs were recorded. Individual animals with a tumor volume exceeding 3,000 mm^3 or animals of a group with a mean tumor volume exceeding 2,000 mm^3 were euthanized. In addition, animals showing signs of severe distress and/or pain or losing the capability of accessing adequate food or water were humanely sacrificed.
Cell lines HCT116, Siha, MFC were cultured in DMEM medium (high glucose) supplemented with 10% fetal bovine serum (FBS), SW116 and T24 in RPMI-1640 medium with 10% FBS, M14 and A375 in DMEM medium (high glucose) with 10% calf serum (CS), SGC7901 and Ketr-3 in RPMI-1640 medium with 10% CS, and CFPAC-1 in IMDM medium with 10% FBS. All of the cells were cultured, in the presence of 100 U/ml penicillin and 100 μg/ml streptomycin, at 37° C. in an atmosphere of 5% CO2 in air. […] The cells growing in an exponential phase were harvested and counted for tumor inoculation. Cell lines 5180 and U14 were maintained in ascites (peritoneal cavity fluid) of mice and were harvested and counted for tumor inoculation. […]
Tumor volume was measured every two days in two dimensions using a caliper and the volume was calculated with a formula of: V=0.5 a×b^2, where a and b are the long and short diameter (in mm) of a tumor, respectively. […] The TGD was calculated as: TGD=T−C, where T was the time (in days) required for tumors in a drug treated group to reach a predetermined mean tumor volume and C the time (in days) in the control group to reach the same volume. […]

## COC(=O)c1csc(C(=O)c2c[nH]c3ccccc23)n1 [ITE, 2-(1′H-indole-3′-carbonyl)-thiazole-4-carboxylic acid methyl ester]
TGD at Vol. 1,000
  TGD: 7 days
TGI at day 24, TGI=(1−ΔT/ΔC)×100%
  TGI (%): 53%
End of therapy relative to beginning
  Weight Loss: 19%
